Test results: patent publication US20020051978A1, “Methods and compositions for the identification, assessment, prevention and therapy of human cancers” (priority 2000, published 2002)
Like-named read-outs stand apart in the source and are kept apart here.

Key:
[1] = system: 60 cancer cell lines (NCI 60 cancer cell line series); experiment: NCI-DTP in vitro cancer screen, sulforhodamine B (SRB) growth inhibition, 48 hour exposure; format: cell-based, human
Summary of the method: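 Sixty NCI-DTP cancer lines plated at line-specific densities, dosed on day 1 in duplicate with 5 concentrations at ten-fold intervals. After 48 h exposure, cell mass read by SRB staining; GI50 (50% growth inhibition) taken from dose-response curves and expressed as -log GI50.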

[2] = system: 60 cancer cell lines (NCI 60 cancer cell line series); details: cited from earlier work

## N[C@@H](Cc1ccc(N(CCCl)CCCl)cc1)C(=O)O [Melphalan]
[1]
  classification of cell line as Low(1), Medium(2) or High(3) sensitivity to compound: 2
[1]; Colon COLO-250 CL4010
  classification of cell line as Low(1), Medium(2) or High(3) sensitivity to compound: 2
[1]; Colon HCC-2998 (CL4002)
  classification of cell line as Low(1), Medium(2) or High(3) sensitivity to compound: 2
[1]; Colon HCT-15 CL4015
  classification of cell line as Low(1), Medium(2) or High(3) sensitivity to compound: 2
[1]; Colon HCT-116 (CL4003)
  classification of cell line as Low(1), Medium(2) or High(3) sensitivity to compound: 2
[1]; Colon HT29(I) CL4001
  classification of cell line as Low(1), Medium(2) or High(3) sensitivity to compound: 1
[1]; Colon KM12 (CL4017)
  classification of cell line as Low(1), Medium(2) or High(3) sensitivity to compound: 1
[1]; Colon SW-620 (CL4009)
  classification of cell line as Low(1), Medium(2) or High(3) sensitivity to compound: 2
[1]; Leukemia CCRF-CEM(I) (CL7003)
  classification of cell line as Low(1), Medium(2) or High(3) sensitivity to compound: 3
[1]; Leukemia HL-60(I) (CL7008)
  classification of cell line as Low(1), Medium(2) or High(3) sensitivity to compound: 3
[1]; Leukemia K562(I) CL7005
  classification of cell line as Low(1), Medium(2) or High(3) sensitivity to compound: 2
[1]; Leukemia MOLT-4 (CL7006)
  classification of cell line as Low(1), Medium(2) or High(3) sensitivity to compound: 3
[1]; Leukemia RPMI-8226(I) (CL7010)
  classification of cell line as Low(1), Medium(2) or High(3) sensitivity to compound: 2
[1]; Leukemia SR CL7019
  classification of cell line as Low(1), Medium(2) or High(3) sensitivity to compound: 3
[1]; Melanoma LOX IMVI CL10001
  classification of cell line as Low(1), Medium(2) or High(3) sensitivity to compound: 2
[1]; Melanoma M14 (CL10014)
  classification of cell line as Low(1), Medium(2) or High(3) sensitivity to compound: 2
[1]; Melanoma MALME-3M CL10002
  classification of cell line as Low(1), Medium(2) or High(3) sensitivity to compound: 2
[1]; Melanoma SK-MEL-2 (CL10005)
  classification of cell line as Low(1), Medium(2) or High(3) sensitivity to compound: 2
[1]; Melanoma SK-MEL-5 (CL10007)
  classification of cell line as Low(1), Medium(2) or High(3) sensitivity to compound: 2
[1]; Melanoma SK-MEL-28 (CL10008)
  classification of cell line as Low(1), Medium(2) or High(3) sensitivity to compound: 2
[1]; Melanoma UACC-62 (CL10020)
  classification of cell line as Low(1), Medium(2) or High(3) sensitivity to compound: 3
[1]; Melanoma UACC-257 (CL10021)
  classification of cell line as Low(1), Medium(2) or High(3) sensitivity to compound: 2
[1]; NSCLC A549/ATCC (CL1004)
  classification of cell line as Low(1), Medium(2) or High(3) sensitivity to compound: 2
[1]; NSCLC EKVX (CL1008)
  classification of cell line as Low(1), Medium(2) or High(3) sensitivity to compound: 2
[1]; NSCLC HOP-62 (CL1026)
  classification of cell line as Low(1), Medium(2) or High(3) sensitivity to compound: 2
[1]; NSCLC HOP-92 (CL1029)
  classification of cell line as Low(1), Medium(2) or High(3) sensitivity to compound: 2
[1]; NSCLC NCI-H226 CL1013
  classification of cell line as Low(1), Medium(2) or High(3) sensitivity to compound: 2
[1]; cell line NSCLC NCI-H23(I), CL1001
  sensitivity class NSCLC NCI-H23(I) CL1001: 2
[1]; cell line NSCLC NCI-H332M, CL1017
  sensitivity class NSCLC NCI-H332M CL1017: 1
[1]; cell line NSCLC NCI-H460, CL1021
  sensitivity class NSCLC NCI-H460 CL1021: 3
[1]; cell line NSCLC NCI-H522, CL1003
  sensitivity class NSCLC NCI-H522 CL1003: 2
[1]; cell line Ovarian IGROV1, CL6010
  sensitivity class Ovarian IGROV1 CL6010: 2
[1]; cell line Ovarian OVCAR-3, CL6001
  sensitivity class Ovarian OVCAR-3 CL6001: 2
[1]; cell line Ovarian OVCAR-4, CL6002
  sensitivity class Ovarian OVCAR-4 CL6002: 2
[1]; cell line Ovarian OVCAR-5, CL6003
  sensitivity class Ovarian OVCAR-5 CL6003: 2
[1]; cell line Ovarian OVCAR-8, CL6005
  sensitivity class Ovarian OVCAR-8 CL6005: 2
[1]; cell line Ovarian SK-OV-3, CL6011
  sensitivity class Ovarian SK-OV-3 CL6011: 2
[1]; cell line Prostate DU-145, CL11003
  sensitivity class Prostate DU-145 CL11003: 2
[1]; cell line Prostate PC-3(I), CL11001
  sensitivity class Prostate PC-3(I) CL11001: 2
[1]; cell line Renal 786-O, CL9018
  sensitivity class Renal 786-O CL9018: 2
[1]; cell line Renal A498, CL9013
  sensitivity class Renal A498 CL9013: 1
[1]; cell line Renal ACHN, CL9023
  sensitivity class Renal ACHN CL9023: 3
[1]; cell line Renal CAKI-1, CL9015
  sensitivity class Renal CAKI-1 CL9015: 3
[1]; cell line Renal RXF-393, CL9016
  sensitivity class Renal RXF-393 CL9016: 2
[1]; cell line Renal SN12C, CL9008
  sensitivity class Renal SN12C CL9008: 2
[1]; cell line Renal TK10, CL9024
  sensitivity class Renal TK10 CL9024: 1
[1]; cell line Renal UO-31, CL9004
  sensitivity class Renal UO-31 CL9004: 2
[2]; Breast BT-549 (CL5013)
  -Log (GI50): 4.4
[2]; Breast HS-578T CL5006
  -Log (GI50): 4.3
[2]; Breast MCF7(I) (CL5001)
  -Log (GI50): 5.0
[2]; Breast MCF7/ADRr (CL5002)
  -Log (GI50): 4.4
[2]; Breast MDA-MB-231 CL5005
  -Log (GI50): 4.3
[2]; Breast MDA-MB-435 (CL5011)
  -Log (GI50): 4.4
[2]; Breast MDA-N CL5012
  -Log (GI50): 4.3
[2]; Breast T-47D (CL5014)
  -Log (GI50): 4.9
[2]; CNS SF-268 CL12014
  -Log (GI50): 4.7
[2]; CNS SF-295 CL12015
  -Log (GI50): 4.7
[2]; CNS SF-539 CL12016
  -Log (GI50): 4.8
[2]; CNS SNB-19 (CL12002)
  -Log (GI50): 4.3
[2]; CNS SNB-75(I) CL12005
  -Log (GI50): 4.5
[2]; CNS U251(I) CL12009
  -Log (GI50): 4.6
[2]; Colon COLO-250 CL4010
  -Log (GI50): 4.4
[2]; Colon HCC-2998 (CL4002)
  -Log (GI50): 4.3
[2]; Colon HCT-15 CL4015
  -Log (GI50): 4.4
[2]; Colon HCT-116 (CL4003)
  -Log (GI50): 4.4
[2]; Colon HT29(I) CL4001
  -Log (GI50): 4.1
[2]; Colon KM12 (CL4017)
  -Log (GI50): 4.1
[2]; Colon SW-620 (CL4009)
  -Log (GI50): 4.5
[2]; Leukemia CCRF-CEM(I) (CL7003)
  -Log (GI50): 5.5
[2]; Leukemia HL-60(I) (CL7008)
  -Log (GI50): 5.5
[2]; Leukemia K562(I) CL7005
  -Log (GI50): 4.3
[2]; Leukemia MOLT-4 (CL7006)
  -Log (GI50): 5.6
[2]; Leukemia RPMI-8226(I) (CL7010)
  -Log (GI50): 4.4
[2]; Leukemia SR CL7019
  -Log (GI50): 5.8
[2]; Melanoma LOX IMVI CL10001
  -Log (GI50): 4.7
[2]; Melanoma M14 (CL10014)
  -Log (GI50): 4.6
[2]; Melanoma MALME-3M CL10002
  -Log (GI50): 4.6
[2]; Melanoma SK-MEL-2 (CL10005)
  -Log (GI50): 4.2
[2]; Melanoma SK-MEL-5 (CL10007)
  -Log (GI50): 4.4
[2]; Melanoma SK-MEL-28 (CL10008)
  -Log (GI50): 4.3
[2]; Melanoma UACC-62 (CL10020)
  -Log (GI50): 4.9
[2]; Melanoma UACC-257 (CL10021)
  -Log (GI50): 4.4
[2]; NCSLC NCI-H522 CL1003
  -Log (GI50): 4.6
[2]; NSCLC A549/ATCC (CL1004)
  -Log (GI50): 4.5
[2]; NSCLC EKVX (CL1008)
  -Log (GI50): 4.3
[2]; NSCLC HOP-62 (CL1026)
  -Log (GI50): 4.8
[2]; NSCLC HOP-92 (CL1029)
  -Log (GI50): 4.4
[2]; NSCLC NCI-H23(I) CL1001
  -Log (GI50): 4.6
[2]; NSCLC NCI-H226 CL1013
  -Log (GI50): 4.4
[2]; NSCLC NCI-H332M CL1017
  -Log (GI50): 4.1
[2]; NSCLC NCI-H460 CL1021
  -Log (GI50): 5.2
[2]; Ovarian IGROV1 CL6010
  -Log (GI50): 4.3
[2]; Ovarian OVCAR-3 CL6001
  -Log (GI50): 4.4
[2]; Ovarian OVCAR-4 CL6002
  -Log (GI50): 4.4
[2]; Ovarian OVCAR-5 CL6003
  -Log (GI50): 4.3
[2]; Ovarian OVCAR-8 CL6005
  -Log (GI50): 4.4
[2]; Ovarian SK-OV-3 CL6011
  -Log (GI50): 4.5
[2]; Prostate DU-145 CL11003
  -Log (GI50): 4.3
[2]; Prostate PC-3(I) CL11001
  -Log (GI50): 4.4
[2]; Renal 786-O CL9018
  -Log (GI50): 4.8
[2]; Renal A498 CL9013
  -Log (GI50): 4.0
[2]; Renal ACHN CL9023
  -Log (GI50): 5.0
[2]; Renal CAKI-1 CL9015
  -Log (GI50): 5.0
[2]; Renal RXF-393 CL9016
  -Log (GI50): 4.7
[2]; Renal SN12C CL9008
  -Log (GI50): 4.8
[2]; Renal TK10 CL9024
  -Log (GI50): 4.2
[2]; Renal UO-31 CL9004
  -Log (GI50): 4.3
